Target: T1, Tyrosine-protein kinase receptor UFO (Homo sapiens, UniProt P30530)
T1 sequence (P30530 whole entry): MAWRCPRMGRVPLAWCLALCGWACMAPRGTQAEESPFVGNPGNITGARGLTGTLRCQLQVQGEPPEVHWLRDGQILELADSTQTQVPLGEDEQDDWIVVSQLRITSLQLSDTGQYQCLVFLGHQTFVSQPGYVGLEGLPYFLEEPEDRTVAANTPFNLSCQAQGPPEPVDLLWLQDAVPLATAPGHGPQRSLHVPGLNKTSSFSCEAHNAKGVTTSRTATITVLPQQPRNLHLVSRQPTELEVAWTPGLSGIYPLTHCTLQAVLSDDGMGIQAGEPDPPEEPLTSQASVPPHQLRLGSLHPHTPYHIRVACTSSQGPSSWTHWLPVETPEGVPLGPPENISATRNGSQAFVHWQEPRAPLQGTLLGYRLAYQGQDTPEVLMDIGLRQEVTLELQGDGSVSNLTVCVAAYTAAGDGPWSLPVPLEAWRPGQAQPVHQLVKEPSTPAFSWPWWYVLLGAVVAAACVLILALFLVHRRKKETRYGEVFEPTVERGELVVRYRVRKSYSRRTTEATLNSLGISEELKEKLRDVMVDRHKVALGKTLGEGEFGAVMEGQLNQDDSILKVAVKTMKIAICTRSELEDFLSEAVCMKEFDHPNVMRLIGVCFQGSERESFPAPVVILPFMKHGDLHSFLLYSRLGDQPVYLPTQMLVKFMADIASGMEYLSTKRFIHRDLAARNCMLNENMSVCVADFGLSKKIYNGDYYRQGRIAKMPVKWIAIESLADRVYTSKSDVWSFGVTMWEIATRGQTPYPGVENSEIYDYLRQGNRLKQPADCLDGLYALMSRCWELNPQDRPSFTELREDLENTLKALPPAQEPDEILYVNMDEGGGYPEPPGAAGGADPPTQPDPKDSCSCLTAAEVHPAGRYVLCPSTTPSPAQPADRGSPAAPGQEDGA
Assay: PHOSPHO-AKT IN-CELL WESTERN ASSAY: The resulting chemiluminescence was read with a Luminomitor within 10 minutes to minimize changes in signal intensity. After reading the chemiluminescence, the cells were washed 1× with wash buffer and 1× with PBS by plate washer. The plate was tapped onto paper towels to remove excess liquid from wells and air-dried at ambient temperature for 5 minutes.

Work on `Nc1nc(Nc2ccc(OCCN3CCCCC3)cc2)n(-c2ccccc2)n1` yielded an IC50 of over 20 µM.

From ChEMBL document CHEMBL5726052, “Substituted triazoles useful as Axl inhibitors” (2019)
